# According to patent US9446007B2, “Methods for maintaining or improving health, well-being and/or a physiological function in a subject” (DYNAMIS THERAPEUTICS, INC., priority 2012, dated 2016):
# Experiments:
# [1] = system: 3-Deoxyglucosone (3DG); test: Mice study: urine 3-deoxyglucosone (3DG) levels, GC-MS; assay type: in vivo, C57BL/6 male mice; conditions: 10, 40 or 75 mM in drinking water; age 103 weeks; vs control animals
# Experimental: (§1) A group of sixteen C57BL/6 male mice at 12 weeks of age were distributed into 4 groups (n=4 each). Animals were fed a normal diet supplemented with 0 mM, 10 mM, 40 mM, or 75 mM meglumine in the drinking water. The approximate doses of meglumine were 537 mg/kg/day, 2,146 mg/kg/day, and 4,027 mg/kg/day for animals treated with, respectfully, 10 mM, 40 mM and 75 mM meglumine.
# Urine was collected from animals (n=3 for all groups, except n=4 for 75 mM meglumine) at the age of 103 weeks and 3DG levels were measured using GC-MS with an internal U-[^13C]-3DG standard (FIG. 2). Prior to analysis, urine samples were treated with 2,3-diaminonapthalene overnight to derivatize 3DG, and then extracted with ethyl acetate. Urinary creatinine levels were measured with a reagent kit from Oxford Biochemicals. The 3DG/creatinine ratio (±standard deviation) is illustrated in FIG. 2.
# [2] = system: C57BL/6 male mice; test: Mice study: longevity; assay type: in vivo; conditions: for average lifespan (±standard deviation): control 771±214.6
# Experimental: as §1
# Animals were observed daily, and date of death was noted if applicable. Four animals were found dead in their cages, and twelve were euthanized after showing symptoms of distress (hunched posture, weight loss, decreased food intake).
# The average lifespan (±standard deviation) for the mice treated with 0 mM, 10 mM, 40 mM and 75 mM meglumine was 771±214.6 days, 834±124 days, 927±80.3 days and 1,027±117.5 days. Animals treated with 10 mM, 40 mM and 75 mM lived, respectively, 8.2%, 20.2%, and 33.2% longer than the control animals.
# [3] = system: advanced glycation end products (AGE products); test: Rat study: advanced glycation end product in skin (fluorescence ratio); assay type: in vivo, Sprague-Dawley rat; conditions: 32 weeks; for Mean AGE/Total Protein in skin: water 0.594 ± 0.173; for decrease of AGE product in the skin vs untreated rats: not statistically significant
# Experimental: At the end of 32 weeks the ratio of advanced glycation end products (AGE products) to total protein was determined in the skin using the ratio of fluorescence measurements. A 3 cm^2 biopsy was taken from the shaved dorsal surface of the rats. The dermis was separated from the epidermis via immersion in water at 55° C. for 30 seconds, followed by gentle scraping of epidermis. The dermis was placed onto a wire screen cut to fit diagonally into fluorescence spectrometer. Fluorescence was recorded on PE 650-40 fluorescence spectrometer using front surface (“diagonal”) geometry. Fluorescence intensities were monitored at excitation/emission wavelengths of 270/300 nm, 270/330 nm, 270/360 nm, 270/400 nm, 325/400 nm, 270/450 nm and 370/450 nm. For direct comparison at the same excitation wavelength, ratios of I(270/330 nm) to I(270/450 nm) were recorded. These ratios were corrected for different instrumental responses at 330 and 450 nm.
# [4] = system: 3DG; test: Rat study: urinary 3DG levels, GC-MS; assay type: in vivo, Sprague-Dawley rat; conditions: 50 mM, 32 weeks
# Experimental: The level of 3DG was measured in the urine of the rats at 32 weeks. 3DG levels were measured by GC-MS by reacting 0.1 ml of sample, to which 20 picomoles of [U-^13C] labeled 3DG had been added as an internal standard, with 1 ml of 1 mM 2,3-diaminonaphthalene (DAN) for 24 hours at room temperature. Following reaction with DAN, the sample was extracted with four volumes of ethyl acetate and then dried. The residue was dissolved in 50 μl of N-methyl-N-(trimethylsilyl)trifluoroacetamide and heated at 65° C. for 30 min. 2 μl was analyzed by GC-MS. Levels of 3DG were normalized to creatinine levels measured with reagents from Oxford Biochemicals.
# [5] = system: isoprostane; test: Rat study: urinary isoprostane levels, competitive ELISA; assay type: in vivo, Sprague-Dawley rat; conditions: 50 mM, 32 weeks
# Experimental: […] Rat urine from 32 weeks was measured for the presence of isoprostane, a marker for oxidative stress using a competitive ELISA (Oxford Biochemicals, Oxford Mich.). All values were normalized to creatinine levels to control for differences in urine volume. Creatinine was measured using a kit from Oxford Biochemicals.
# [6] = system: imidazolone; test: Rat study: 3DG adduct (imidazolone) levels in skin, fluorescent immunohistochemistry; assay type: in vivo, Sprague-Dawley rat; conditions: 50 mM, 32 weeks
# Experimental: Eighteen male Sprague-Dawley rat (ACE) weighing 150-175 g were divided into 3 groups (n=6) and fed a normal diet supplemented with 0 mM, 25 mM, or 75 mM meglumine in the drinking water for 32 weeks. The presence of imidazolone, a 3DG-derived adduct formed from the reaction of 3DG and arginine was measured by fluorescent immunohistochemistry, using a monoclonal antibody to imidazolone, AG-1 (T. Niwa). A piece of skin from each rat on water and 50 mM meglumine was fixed in formalin, and thin sections were treated with AG-1 antibody and then a fluorescent second antibody, and each slide was scanned using a fluorescence microscope. The total florescence due to imidazolone over each slide was measured.
# [7] = system: imidazolone; test: Rat study: 3DG adduct (imidazolone) levels in kidney tubules and glomeruli; assay type: in vivo, Sprague-Dawley rat; conditions: 50 mM, 32 weeks
# Experimental: Eighteen male Sprague-Dawley rat (ACE) weighing 150-175 g were divided into 3 groups (n=6) and fed a normal diet supplemented with 0 mM, 25 mM, or 75 mM meglumine in the drinking water for 32 weeks. The 3DG adduct imidazolone was measured in kidney tubules and glomeruli by fluorescent immunohistochemistry using a monoclonal antibody to imidazolone, AG-1 (T. Niwa). Kidneys from each rat on water or 50 mM meglumine were placed in formalin, and thin sections were prepared. Each slide was treated with AG-1 and then a fluorescent second antibody, and then scanned using a fluorescence microscope. The total florescence due to imidazolone over each structure measured.
# [8] = system: blood glucose; test: Glucose tolerance test; assay type: in vivo, KK.Cg-A^y/+/J yellow mice; conditions: mutant yellow mice; 18 mM meglumine hydrochloride in water for 16 weeks; 15, 30, 60 and 120 min; vs water
# Experimental: Mutant KK.Cg-A^y/+/J “yellow mice” (which are prone to developing diabetes and obesity) and control KK.Cg-A^+/+/J “black mice” were fed with water or water supplemented with 18 mM meglumine hydrochloride for 16 weeks. As a comparison group, SV129 normoglycemic mice were fed with water. The animals were then fasted overnight and blood glucose measured (time 0 min). The animals were injected with glucose, and blood glucose levels measured after 15 min, 30 min, 60 min and 120 min. The results are illustrated in FIG. 8.
# [9] = system: SV129 mice; test: Strength testing in mice (inverted metal grid); assay type: in vivo; conditions: 18 mM meglumine hydrochloride in drinking water, 6 weeks; n=15; control 6.3±3.4; p=0.0006
# Excerpt: The grip strength test is a widely-used non-invasive method designed to evaluate mouse limb strength that has been used to investigate the effects of neuromuscular disorders and compound under testing. It is based on the natural tendency of the mouse to grasp a bar or grid when it is suspended by the tail. During this test the mouse grips with both forelimbs (or hind-limbs) a single bar or a mesh. There are three kinds of grip strength tests used: Mesh Grip Test, Wire Grip Test, and Automatic Grip Strength (GS Meter). The Mesh Grip Test measures the ability of the mouse to remain clinging to an inverted or tilted surface such as a wire grid or a cage lid for a period of time, usually up to 1 minute; the Wire Grip Test measures the ability of the mouse to hang on a wire with its forepaws for a preset length of time or until grip fails, while in the Automatic Grip Strength the mouse grasps a horizontal metal bar or grid while is pulled by the tail. The bar or grid is attached to a force transducer that peak pull-force achieved on its digital display. A group of SV129 mice (n=15) and a group of mice treated with 18 mM meglumine hydrochloride in their drinking water (n=15) for 6 weeks were tested for the ability to hold on to an inverted metal grid. The length of time before falling off the grid was averaged, and the standard error was calculated.
compound,measurement,setting,value
"CNC[C@H](O)[C@@H](O)[C@H](O)[C@H](O)CO [meglumine, (2R,3R,4R,5S)-6-methylaminohexane-1,2,3,4,5-pentol]",urine 3DG/creatinine ratio,[1],less than the control animals
same,lived longer than the control animals,[2]; 10 mM in drinking water,8.2%
same,average lifespan (±standard deviation),[2]; 10 mM in drinking water (537 mg/kg/day),834 ± 124 days
same,lived longer than the control animals,[2]; 40 mM in drinking water,20.2%
same,average lifespan (±standard deviation),"[2]; 40 mM in drinking water (2,146 mg/kg/day)",927 ± 80.3 days
same,lived longer than the control animals,[2]; 75 mM in drinking water,33.2%
same,average lifespan (±standard deviation),"[2]; 75 mM in drinking water (4,027 mg/kg/day)","1,027±117.5 days"
same,Mean AGE/Total Protein in skin,[3]; 25 mM in drinking water,0.486 ± 0.187
same,decrease of AGE product in the skin vs untreated rats,[3]; 25 mM,10%
same,Mean AGE/Total Protein in skin,[3]; 50 mM in drinking water,0.235 ± 0.067
same,decrease of AGE product in the skin vs untreated rats,[3]; 50 mM,60%
same,urinary 3DG levels lower than in rats on water,[4],33%
same,urinary 3DG,[4]; water 0.0891 ± 0.007,0.0598 ± 0.004 µM
same,urinary isoprostane levels lower than in rats on water,[5]; not statistically significant,22%
same,urinary Isoprostane,[5]; water 2.65 ± 0.236,2.05 ± 0.283 ng/mL
same,less imidazolone in skin than rats on water,[6]; not statistically significant,25%
same,Fluorescence (imidazolone) in skin,[6]; water 790567 ± 83833,593320 ± 87404
same,less imidazolone in glomeruli than rats on water,[7]; not statistically significant,24%
same,less imidazolone in tubules than rats on water,[7]; not statistically significant,13%
same,Fluorescence in Tubules (imidazolone),"[7]; water 47,081,228 ± 6,407,142","40,158,431 ± 3,644,819"
same,Fluorescence in Glomeruli (imidazolone),"[7]; water 85,039,251 ± 13,401,970","64,376,501 ± 7,548,981"
same,blood glucose levels after glucose injection,[8],decreased blood glucose levels
same,length of time that the animals could hold on to the grid,[9],17.8 ± 0.6 s
